Laboratory results from ChEMBL document CHEMBL1201862, “PubChem BioAssay data set” (2004).
Activity calls are given as the source filed them.

How the values were obtained:
[1] = Counterscreen for AddAB inhibitors: absorbance-based bacterial cell-based high throughput dose response assay for inhibitors of bacterial viability. [Related pubchem assays (depositor defined):AID435030, AID449728, AID449731, AID488942, AID488955, AID488956]; type: functional
Protein RecA = biological target: T1, Protein RecA (Mycobacterium tuberculosis, UniProt P9WHJ3); test: Fluorescence Cell-Free Homogeneous Dose Retest to Identify Inhibitors of RecA-Intein Splicing Activity. [Related pubchem assays (depositor defined):AID2097, AID2223, AID489010, AID492950]; type: functional
T1 sequence (P9WHJ3 whole entry): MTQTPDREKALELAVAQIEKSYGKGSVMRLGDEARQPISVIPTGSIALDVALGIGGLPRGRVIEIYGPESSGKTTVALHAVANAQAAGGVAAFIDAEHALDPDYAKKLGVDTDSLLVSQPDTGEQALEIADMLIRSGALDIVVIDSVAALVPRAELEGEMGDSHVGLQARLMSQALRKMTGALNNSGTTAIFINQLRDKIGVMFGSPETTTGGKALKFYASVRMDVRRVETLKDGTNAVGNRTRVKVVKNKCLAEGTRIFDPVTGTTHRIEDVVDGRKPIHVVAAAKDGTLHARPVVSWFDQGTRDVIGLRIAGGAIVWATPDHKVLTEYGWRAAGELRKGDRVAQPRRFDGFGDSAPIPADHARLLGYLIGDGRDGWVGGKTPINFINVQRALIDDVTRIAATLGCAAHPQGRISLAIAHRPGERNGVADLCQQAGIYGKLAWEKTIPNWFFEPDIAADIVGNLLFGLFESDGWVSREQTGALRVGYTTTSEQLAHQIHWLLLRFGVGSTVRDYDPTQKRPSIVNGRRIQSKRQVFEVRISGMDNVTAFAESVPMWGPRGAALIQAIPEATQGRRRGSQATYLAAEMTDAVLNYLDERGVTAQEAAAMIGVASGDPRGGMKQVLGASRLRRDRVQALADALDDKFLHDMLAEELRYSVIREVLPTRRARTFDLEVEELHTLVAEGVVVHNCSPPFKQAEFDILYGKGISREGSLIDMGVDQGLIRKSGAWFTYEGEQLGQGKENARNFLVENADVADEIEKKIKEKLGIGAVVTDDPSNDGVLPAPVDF

[2] = A cytotoxicity screen of small molecule inhibitors of the PhoP region in Salmonella typhi identified in the primary screen. [Related pubchem assays: 1850, 1864, 1985 ]; type: functional
Exodeoxyribonuclease V = Exodeoxyribonuclease V (Escherichia coli (strain K12), UniProt P04993+P07648+P08394); test: RecBCD inhibition via phage-restricted bacterial growth – absorbance, V66 E. coli, mutant T4 phage, counter-screen for AddAB inhibitor project, dose response (AID 492957); type: functional, cell-based, Escherichia coli str. K-12 substr. MG1655
Sequence of Exodeoxyribonuclease V (P04993 whole entry): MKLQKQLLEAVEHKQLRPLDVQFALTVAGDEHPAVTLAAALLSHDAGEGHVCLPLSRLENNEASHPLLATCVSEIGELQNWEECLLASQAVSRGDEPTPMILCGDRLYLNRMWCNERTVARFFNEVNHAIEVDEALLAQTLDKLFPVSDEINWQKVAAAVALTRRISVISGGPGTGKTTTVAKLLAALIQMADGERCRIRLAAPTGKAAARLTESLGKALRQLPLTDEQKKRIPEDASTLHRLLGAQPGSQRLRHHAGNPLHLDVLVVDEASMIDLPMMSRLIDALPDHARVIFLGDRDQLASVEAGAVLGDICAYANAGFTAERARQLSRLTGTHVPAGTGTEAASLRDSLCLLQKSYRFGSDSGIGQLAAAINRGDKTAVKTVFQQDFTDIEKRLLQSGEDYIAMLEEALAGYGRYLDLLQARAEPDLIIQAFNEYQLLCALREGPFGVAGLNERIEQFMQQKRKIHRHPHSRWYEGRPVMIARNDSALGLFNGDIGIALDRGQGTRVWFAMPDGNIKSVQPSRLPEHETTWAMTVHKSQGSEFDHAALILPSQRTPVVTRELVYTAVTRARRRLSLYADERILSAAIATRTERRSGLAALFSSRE
Sequence of Exodeoxyribonuclease V (P07648 whole entry): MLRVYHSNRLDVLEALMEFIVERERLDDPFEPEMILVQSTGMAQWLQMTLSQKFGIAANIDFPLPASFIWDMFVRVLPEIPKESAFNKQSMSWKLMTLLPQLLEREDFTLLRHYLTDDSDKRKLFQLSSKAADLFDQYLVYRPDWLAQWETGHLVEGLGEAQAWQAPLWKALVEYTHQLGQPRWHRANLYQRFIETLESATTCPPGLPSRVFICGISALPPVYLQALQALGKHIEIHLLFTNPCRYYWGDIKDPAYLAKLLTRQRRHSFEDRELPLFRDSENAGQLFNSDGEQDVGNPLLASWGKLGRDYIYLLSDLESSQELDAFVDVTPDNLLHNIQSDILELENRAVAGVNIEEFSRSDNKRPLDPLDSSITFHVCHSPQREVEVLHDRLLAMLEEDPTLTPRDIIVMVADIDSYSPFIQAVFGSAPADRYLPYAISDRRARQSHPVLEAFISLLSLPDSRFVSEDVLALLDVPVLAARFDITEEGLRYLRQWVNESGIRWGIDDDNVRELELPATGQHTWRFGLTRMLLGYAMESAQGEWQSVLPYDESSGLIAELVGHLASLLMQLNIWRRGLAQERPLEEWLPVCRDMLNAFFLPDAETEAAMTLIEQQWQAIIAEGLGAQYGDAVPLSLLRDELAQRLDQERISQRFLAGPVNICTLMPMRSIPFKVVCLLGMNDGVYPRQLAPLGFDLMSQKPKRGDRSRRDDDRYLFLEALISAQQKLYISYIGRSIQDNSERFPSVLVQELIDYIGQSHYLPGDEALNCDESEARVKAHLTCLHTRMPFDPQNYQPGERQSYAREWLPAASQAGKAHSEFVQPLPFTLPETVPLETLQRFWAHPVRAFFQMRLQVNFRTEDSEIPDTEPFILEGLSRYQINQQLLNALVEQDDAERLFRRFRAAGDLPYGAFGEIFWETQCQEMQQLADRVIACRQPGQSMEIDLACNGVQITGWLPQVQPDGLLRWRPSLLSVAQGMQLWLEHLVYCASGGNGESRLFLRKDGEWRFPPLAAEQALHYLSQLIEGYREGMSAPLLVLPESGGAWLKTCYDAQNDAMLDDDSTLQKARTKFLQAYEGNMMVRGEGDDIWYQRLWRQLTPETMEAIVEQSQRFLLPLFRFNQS
Sequence of Exodeoxyribonuclease V (P08394 whole entry): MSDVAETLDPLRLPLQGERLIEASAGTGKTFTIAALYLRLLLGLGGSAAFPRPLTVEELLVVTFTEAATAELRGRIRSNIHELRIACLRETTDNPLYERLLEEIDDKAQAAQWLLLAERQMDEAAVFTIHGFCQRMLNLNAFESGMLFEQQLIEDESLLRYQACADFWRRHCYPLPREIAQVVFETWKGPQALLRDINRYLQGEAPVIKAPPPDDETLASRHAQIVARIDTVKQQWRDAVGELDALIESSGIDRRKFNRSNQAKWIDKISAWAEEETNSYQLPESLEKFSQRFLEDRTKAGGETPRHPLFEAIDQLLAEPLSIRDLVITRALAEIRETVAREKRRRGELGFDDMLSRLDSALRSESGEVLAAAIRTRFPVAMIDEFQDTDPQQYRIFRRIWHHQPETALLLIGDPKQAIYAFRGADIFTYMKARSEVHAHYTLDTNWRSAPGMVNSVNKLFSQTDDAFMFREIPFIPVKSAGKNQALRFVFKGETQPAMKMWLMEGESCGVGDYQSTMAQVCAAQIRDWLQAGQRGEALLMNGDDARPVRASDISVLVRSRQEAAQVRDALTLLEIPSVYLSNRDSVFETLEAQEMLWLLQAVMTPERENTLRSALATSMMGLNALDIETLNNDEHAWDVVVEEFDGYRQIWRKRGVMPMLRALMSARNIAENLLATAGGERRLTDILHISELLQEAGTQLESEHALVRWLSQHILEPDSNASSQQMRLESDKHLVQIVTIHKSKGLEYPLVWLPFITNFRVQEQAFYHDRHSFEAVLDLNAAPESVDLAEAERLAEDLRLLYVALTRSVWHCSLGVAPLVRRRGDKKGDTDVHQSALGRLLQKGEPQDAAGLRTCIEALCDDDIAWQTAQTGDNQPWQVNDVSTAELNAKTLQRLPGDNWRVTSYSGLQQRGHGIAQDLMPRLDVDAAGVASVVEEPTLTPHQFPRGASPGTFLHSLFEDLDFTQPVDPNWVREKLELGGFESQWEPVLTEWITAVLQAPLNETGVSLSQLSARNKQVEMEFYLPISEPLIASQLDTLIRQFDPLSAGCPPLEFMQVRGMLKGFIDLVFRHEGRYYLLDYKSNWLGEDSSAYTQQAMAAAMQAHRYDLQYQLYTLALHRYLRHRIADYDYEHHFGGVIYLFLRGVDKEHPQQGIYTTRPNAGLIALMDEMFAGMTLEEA

[3] = biological target: T2, Apoptotic protease-activating factor 1 (Homo sapiens, UniProt O14727); type: functional
T2 sequence (O14727 whole entry): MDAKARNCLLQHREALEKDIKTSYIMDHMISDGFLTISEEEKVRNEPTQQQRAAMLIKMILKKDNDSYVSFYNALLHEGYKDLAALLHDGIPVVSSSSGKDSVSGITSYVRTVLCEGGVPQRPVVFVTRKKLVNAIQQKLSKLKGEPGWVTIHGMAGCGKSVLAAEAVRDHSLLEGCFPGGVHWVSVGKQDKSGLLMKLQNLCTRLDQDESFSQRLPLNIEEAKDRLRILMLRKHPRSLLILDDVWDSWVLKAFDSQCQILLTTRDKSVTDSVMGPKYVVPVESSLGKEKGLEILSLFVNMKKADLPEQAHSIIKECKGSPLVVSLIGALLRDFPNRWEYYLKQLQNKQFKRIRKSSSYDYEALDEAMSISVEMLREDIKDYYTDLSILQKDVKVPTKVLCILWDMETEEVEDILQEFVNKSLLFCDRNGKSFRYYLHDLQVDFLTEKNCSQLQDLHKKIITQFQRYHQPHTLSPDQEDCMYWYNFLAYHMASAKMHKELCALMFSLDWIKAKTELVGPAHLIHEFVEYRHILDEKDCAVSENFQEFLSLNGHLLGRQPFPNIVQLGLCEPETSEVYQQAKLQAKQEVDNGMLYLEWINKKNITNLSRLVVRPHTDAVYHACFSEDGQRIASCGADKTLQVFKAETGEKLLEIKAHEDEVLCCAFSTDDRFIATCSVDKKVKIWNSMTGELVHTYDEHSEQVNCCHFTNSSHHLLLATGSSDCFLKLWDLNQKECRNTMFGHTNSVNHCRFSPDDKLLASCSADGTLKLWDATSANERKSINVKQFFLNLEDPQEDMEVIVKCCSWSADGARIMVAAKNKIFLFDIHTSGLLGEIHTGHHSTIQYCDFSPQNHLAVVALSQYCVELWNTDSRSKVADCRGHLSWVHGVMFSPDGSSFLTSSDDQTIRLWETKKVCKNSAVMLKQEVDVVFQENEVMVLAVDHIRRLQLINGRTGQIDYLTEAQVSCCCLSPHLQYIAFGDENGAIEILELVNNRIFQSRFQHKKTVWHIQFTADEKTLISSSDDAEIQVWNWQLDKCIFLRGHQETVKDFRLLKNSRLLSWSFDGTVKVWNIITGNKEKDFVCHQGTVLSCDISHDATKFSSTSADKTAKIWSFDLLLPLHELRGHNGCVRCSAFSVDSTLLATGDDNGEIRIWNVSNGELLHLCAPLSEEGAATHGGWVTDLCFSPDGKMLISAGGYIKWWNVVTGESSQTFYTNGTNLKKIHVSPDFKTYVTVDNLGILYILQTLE

[4] = biological target: T3, Replicative DNA helicase DnaB (Mycobacterium tuberculosis, UniProt P9WMR3); test: DnaB intein splicing inhibitors, dose response, biochemical, cell-free fluorescence (AID 449749); type: functional
T3 sequence (P9WMR3 whole entry): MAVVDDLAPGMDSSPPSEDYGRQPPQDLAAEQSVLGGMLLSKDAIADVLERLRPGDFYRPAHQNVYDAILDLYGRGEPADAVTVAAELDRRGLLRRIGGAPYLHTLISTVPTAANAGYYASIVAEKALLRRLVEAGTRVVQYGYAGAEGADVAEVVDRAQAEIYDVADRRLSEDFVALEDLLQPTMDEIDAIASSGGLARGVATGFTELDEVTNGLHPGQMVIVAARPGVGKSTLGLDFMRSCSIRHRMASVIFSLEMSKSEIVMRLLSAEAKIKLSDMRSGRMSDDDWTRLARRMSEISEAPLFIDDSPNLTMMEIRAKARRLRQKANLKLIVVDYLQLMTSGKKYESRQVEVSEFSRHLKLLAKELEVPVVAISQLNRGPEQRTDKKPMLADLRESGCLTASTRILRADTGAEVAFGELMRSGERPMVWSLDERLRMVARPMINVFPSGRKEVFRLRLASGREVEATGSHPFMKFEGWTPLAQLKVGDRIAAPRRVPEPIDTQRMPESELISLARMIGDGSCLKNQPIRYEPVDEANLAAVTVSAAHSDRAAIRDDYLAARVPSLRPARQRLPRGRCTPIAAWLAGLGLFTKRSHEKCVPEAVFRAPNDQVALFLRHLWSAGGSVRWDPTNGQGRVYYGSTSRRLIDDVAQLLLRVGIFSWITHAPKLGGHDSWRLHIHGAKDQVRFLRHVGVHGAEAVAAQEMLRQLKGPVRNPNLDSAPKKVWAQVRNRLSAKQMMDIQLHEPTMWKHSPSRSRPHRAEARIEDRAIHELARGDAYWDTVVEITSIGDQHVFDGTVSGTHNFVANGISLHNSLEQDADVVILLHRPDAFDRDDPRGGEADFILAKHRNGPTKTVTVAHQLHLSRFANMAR

INS1 = test: INS-1E survival protection against cytokine death – cell-based, luminescence, retest, dose response (AID 449756); type: functional; conditions: Rattus norvegicus;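 note: cell death triggered by IL-1 beta plus TNF-alpha plus IFN-gamma mixture; protective hits raise ATP signal compared with cytokine alone wells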
Galanin receptor type 3 = Galanin receptor type 3 (Homo sapiens, UniProt O60755); test: Fluorescence-based cell-based primary high throughput dose response assay to identify antagonists of the Galanin Receptor 3 (GalR3).; type: functional
cells [5] = type: functional, cell-based
cells [6] = type: functional, cell-based; conditions: HEK-CNG
cells [7] = type: functional, cell-based; remark: listed apart in the source
[8] = fluconazole-exposed Candida albicans growth modulators – fluorescence, retest, confirmation (AID 2467); type: functional, cell-based
[9] = NIH-3T3 fibroblast cytotoxicity, dose response, cytotoxicity control, cell-based, fluorescence, Alamar Blue, secondary assay (AID 2327); type: functional;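 note: NIH-3T3 mouse fibroblasts cultured with fluconazole at 8 µg/mL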
[10] = Luminescence Cell-Based Dose Response HTS to Identify Inhibitors of 5'UTR Stem-Loop Driven Prion Protein mRNA Translation in H4 Neuroglioblastoma Cells. [Related pubchem assays: 1827 (Project Summary), 1813 (Primary HTS)]; type: functional
[11] = luciferase reporter signal suppression in cells – H4 neuroglioma cells, luminescence, dose response (AID 1990); type: functional, cell-based
[12] = biological target: Lysine-specific demethylase 4C (Homo sapiens, UniProt Q9H3R0); test: inhibition of JMJD2C H3K9me3 demethylation – biochemical, DELFIA europium, cherry-picked samples, dose response (AID 488835); type: functional
Sequence of Lysine-specific demethylase 4C (Q9H3R0 whole entry): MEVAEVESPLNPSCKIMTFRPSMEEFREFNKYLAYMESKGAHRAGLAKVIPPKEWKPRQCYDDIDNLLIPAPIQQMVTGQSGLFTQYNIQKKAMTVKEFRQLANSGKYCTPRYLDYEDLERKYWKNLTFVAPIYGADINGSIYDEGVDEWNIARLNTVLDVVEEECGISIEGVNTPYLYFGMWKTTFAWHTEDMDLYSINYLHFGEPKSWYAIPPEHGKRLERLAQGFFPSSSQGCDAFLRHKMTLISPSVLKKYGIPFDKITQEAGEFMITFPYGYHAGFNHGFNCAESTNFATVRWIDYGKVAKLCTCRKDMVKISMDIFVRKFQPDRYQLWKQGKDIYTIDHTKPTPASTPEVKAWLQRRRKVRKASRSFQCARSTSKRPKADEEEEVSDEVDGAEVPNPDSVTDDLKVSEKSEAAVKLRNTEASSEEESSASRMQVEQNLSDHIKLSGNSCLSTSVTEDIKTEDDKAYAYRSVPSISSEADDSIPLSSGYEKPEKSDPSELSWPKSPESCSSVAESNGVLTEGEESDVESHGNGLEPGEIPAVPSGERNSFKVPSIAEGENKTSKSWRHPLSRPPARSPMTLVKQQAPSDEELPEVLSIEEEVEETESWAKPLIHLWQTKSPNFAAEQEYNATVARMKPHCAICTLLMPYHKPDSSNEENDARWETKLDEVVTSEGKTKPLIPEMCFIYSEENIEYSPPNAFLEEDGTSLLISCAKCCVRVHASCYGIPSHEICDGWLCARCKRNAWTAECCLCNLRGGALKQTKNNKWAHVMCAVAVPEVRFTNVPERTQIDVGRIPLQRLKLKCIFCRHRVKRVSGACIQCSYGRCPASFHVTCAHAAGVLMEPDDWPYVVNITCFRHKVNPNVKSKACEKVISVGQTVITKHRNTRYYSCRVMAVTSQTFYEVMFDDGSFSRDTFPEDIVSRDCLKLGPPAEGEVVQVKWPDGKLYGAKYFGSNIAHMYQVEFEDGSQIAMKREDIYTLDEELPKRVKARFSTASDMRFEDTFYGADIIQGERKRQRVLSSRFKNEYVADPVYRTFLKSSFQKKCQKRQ

[13] = biological target: Induced myeloid leukemia cell differentiation protein Mcl-1 (Homo sapiens, UniProt Q07820); type: functional
[14] = biological target: Bifunctional protein GlmU (Mycobacterium tuberculosis, UniProt P9WMN3); test: Inhibitors of Mycobacterial Glucosamine-1-phosphate acetyl transferase (GlmU). Secondary screen.; parameters: species or system Mycobacterium tuberculosis H37Rv
Caspase-6 = biological target: T4, Caspase-6 (Homo sapiens, UniProt P55212); test: inhibition of CASP6 peptide cleavage – biochemical, VEID-R110 fluorescence, cherry-pick, dose response (AID 720632)
T4 sequence (P55212 whole entry): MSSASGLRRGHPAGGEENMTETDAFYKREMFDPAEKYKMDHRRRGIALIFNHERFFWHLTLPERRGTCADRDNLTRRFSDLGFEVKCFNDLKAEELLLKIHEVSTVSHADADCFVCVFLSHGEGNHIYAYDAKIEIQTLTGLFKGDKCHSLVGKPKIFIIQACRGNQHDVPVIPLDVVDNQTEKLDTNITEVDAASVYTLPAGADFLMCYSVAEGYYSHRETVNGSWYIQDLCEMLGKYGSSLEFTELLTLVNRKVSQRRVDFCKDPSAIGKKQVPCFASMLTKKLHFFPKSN

[15] = alpha-synuclein stem-loop luciferase translation blockers – H4 neuroglioma cells, luminescence, confirmation (AID 1988); type: functional, cell-based
Cytochrome P450 2C9 = Cytochrome P450 2C9 (Homo sapiens, UniProt P11712)
Cytochrome P450 2D6 = Cytochrome P450 2D6 (Homo sapiens, UniProt P10635);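 note: CYP2D6 member of a cytochrome P450 panel assay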
Sequence of Cytochrome P450 2D6 (P10635 whole entry): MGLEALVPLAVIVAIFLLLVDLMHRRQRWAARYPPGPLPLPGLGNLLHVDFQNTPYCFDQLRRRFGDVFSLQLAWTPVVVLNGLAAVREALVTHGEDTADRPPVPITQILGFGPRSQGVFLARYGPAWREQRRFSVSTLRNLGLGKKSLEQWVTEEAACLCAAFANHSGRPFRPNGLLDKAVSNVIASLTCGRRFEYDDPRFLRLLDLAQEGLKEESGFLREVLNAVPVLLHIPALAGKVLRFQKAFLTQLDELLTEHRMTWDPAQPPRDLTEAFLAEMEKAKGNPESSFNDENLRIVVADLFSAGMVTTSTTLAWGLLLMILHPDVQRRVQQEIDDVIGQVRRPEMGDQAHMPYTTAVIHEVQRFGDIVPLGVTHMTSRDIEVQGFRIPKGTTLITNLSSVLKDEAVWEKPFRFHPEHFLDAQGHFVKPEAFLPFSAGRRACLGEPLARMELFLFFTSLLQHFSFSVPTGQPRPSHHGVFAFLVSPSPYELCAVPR

Cytochrome P450 2C19 = Cytochrome P450 2C19 (Homo sapiens, UniProt P33261); test: Cytochrome panel assay with activity outcomes. Panel member name: p450-cyp2c19 Compounds with AC50 equal or less than 10 uM are considered active; type: functional; conditions: read-out: AC50
Sequence of Cytochrome P450 2C19 (P33261 whole entry): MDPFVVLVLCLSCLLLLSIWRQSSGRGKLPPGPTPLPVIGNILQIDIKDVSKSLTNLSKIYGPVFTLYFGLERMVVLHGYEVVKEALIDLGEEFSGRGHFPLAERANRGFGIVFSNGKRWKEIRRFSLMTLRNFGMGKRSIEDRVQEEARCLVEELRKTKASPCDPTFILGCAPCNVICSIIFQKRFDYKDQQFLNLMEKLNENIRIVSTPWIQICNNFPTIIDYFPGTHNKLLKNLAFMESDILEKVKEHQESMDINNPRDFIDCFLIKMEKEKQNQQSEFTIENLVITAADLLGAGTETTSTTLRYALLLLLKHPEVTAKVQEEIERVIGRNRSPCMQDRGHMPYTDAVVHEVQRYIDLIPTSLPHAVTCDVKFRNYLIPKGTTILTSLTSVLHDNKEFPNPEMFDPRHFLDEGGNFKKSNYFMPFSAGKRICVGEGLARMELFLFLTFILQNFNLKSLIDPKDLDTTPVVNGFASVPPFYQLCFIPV

Cytochrome P450 1A2 = biological target: T5, Cytochrome P450 1A2 (Homo sapiens, UniProt P05177);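 note: PubChem cytochrome P450 panel assay, CYP1A2 panel member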
T5 sequence (P05177 whole entry): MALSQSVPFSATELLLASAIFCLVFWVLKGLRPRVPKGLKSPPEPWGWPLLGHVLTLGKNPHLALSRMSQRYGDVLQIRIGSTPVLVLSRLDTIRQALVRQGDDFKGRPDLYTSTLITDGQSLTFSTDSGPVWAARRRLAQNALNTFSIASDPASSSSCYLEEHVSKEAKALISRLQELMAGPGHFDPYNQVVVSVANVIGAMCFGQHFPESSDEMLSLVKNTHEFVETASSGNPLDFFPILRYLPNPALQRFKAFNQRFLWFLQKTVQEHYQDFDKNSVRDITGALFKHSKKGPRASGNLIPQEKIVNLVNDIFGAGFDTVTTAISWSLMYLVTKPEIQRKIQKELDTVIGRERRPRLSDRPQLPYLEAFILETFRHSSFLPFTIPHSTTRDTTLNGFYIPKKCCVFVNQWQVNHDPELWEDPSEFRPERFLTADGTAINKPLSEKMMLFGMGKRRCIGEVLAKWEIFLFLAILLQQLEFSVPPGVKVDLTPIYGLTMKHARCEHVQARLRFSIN

| Structure (SMILES) | IC50 [1] | EC50 (Protein RecA) | IC50 (Exodeoxyribonuclease V) | AC50 [4] | AC50 (INS1) | EC50 [8] | EC50 [9] | AC50 [12] | AC50 (Cytochrome P450 2D6) | AC50 (Cytochrome P450 2C19) | also measured |
| --- | --- | --- | --- | --- | --- | --- | --- | --- | --- | --- | --- |
| CCCCNC1=CC(=O)C(=O)c2ccccc21 | > 39.5 µM (inactive) | 0.669 µM (active) | > 119 µM (inactive) | 0.575 µM (active) | 1.78 µM (active) |  |  |  |  |  | EC50 [2]: > 50 µM (active); IC50 [3]: 6.49 µM (active) |
| Nc1nonc1-n1nnc(C(=O)N/N=C/c2cc(Br)ccc2O)c1CSC1=NCCS1 | > 119 µM (inactive) |  | > 119 µM (inactive) |  | 0.567 µM (active) | 0.299 µM (active) | 5.49 µM (active) |  |  |  | IC50 (Galanin receptor type 3): 1.24 µM (active); EC50 (cells [5]): 12.6 µM (active); EC50 (cells [6]): > 29.9 µM (inactive); EC50 (cells [7]): > 350 µM (not active) |
| O=[N+]([O-])c1cc(/C=N/Nc2nc3ccccc3[nH]2)c(O)cc1O |  | 6.73 µM (active) |  | 4.22 µM (active) | 0.483 µM (active) | 2.33 µM (active) | > 150 µM (inactive) | 3.07 µM (active) |  |  | EC50 [10]: 11.2 µM (active); EC50 [11]: 9.68 µM (inconclusive); IC50 [13]: 6.08 µM (active); IC50 [14]: 125 µM (active); AC50 (Caspase-6): 5.37 µM (active); EC50 [15]: 3.81 µM (active) |
| COc1ccc(C(=O)Nc2cccc(-c3cnc4ccccc4n3)c2)cc1 |  |  |  |  |  |  |  |  | inconclusive | 2.24 µM (inconclusive) | AC50 (Cytochrome P450 2C9): 1.78 µM (inconclusive) |
| Cc1ccc2c(c1)N(CC(=O)NCC1CCCO1)C(=O)C(C(C)C)O2 (stereo not given) |  |  |  |  |  |  |  | 11.5 µM (active) |  |  |  |
| CCc1ccc(N2CC(C(=O)N/N=C/c3cccc([N+](=O)[O-])c3)CC2=O)cc1 (stereo not given) |  |  |  |  |  |  |  |  | inconclusive | 0.316 µM (inconclusive) | AC50 (Cytochrome P450 1A2): 3.16 µM (inconclusive) |
